Data published in BindingDB's records for patent US12011444 (Idorsia Pharmaceuticals, 2024).

How the values were obtained:
[1] = target: Prostaglandin E2 receptor EP4 subtype (Homo sapiens, UniProt P35408); assay: hEP4 cAMP Assay
Protocol: Plate is pre-incubated 45 minutes at room temperature. Subsequently, 2.5 microliters of PGE2 (final conc. 6 nM) are transferred into the assay plate. Plate is incubated 30 minutes at room temperature.

[2] = target: Prostaglandin E2 receptor EP2 subtype (Homo sapiens, UniProt P43116); assay: hEP2 cAMP Assay
Chain of Prostaglandin E2 receptor EP2 subtype (P43116 whole entry): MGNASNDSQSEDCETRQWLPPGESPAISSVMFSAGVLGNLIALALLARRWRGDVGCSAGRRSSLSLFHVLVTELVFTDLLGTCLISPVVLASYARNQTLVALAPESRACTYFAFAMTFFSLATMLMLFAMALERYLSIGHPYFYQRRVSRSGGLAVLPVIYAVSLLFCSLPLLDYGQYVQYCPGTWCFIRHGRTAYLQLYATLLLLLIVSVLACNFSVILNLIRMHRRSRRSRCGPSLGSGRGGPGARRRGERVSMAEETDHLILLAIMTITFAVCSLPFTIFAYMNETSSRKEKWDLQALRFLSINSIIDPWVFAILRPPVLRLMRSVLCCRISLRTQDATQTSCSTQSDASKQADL
Protocol: Plate is pre-incubated 45 minutes at room temperature. […] Plate is incubated 30 minutes at room temperature. […] For each compound concentration the percentage of cAMP compared to DMSO control value as average±STDEV (each concentration is measured in duplicate) is calculated.

Chain of Prostaglandin E2 receptor EP4 subtype (P35408 whole entry): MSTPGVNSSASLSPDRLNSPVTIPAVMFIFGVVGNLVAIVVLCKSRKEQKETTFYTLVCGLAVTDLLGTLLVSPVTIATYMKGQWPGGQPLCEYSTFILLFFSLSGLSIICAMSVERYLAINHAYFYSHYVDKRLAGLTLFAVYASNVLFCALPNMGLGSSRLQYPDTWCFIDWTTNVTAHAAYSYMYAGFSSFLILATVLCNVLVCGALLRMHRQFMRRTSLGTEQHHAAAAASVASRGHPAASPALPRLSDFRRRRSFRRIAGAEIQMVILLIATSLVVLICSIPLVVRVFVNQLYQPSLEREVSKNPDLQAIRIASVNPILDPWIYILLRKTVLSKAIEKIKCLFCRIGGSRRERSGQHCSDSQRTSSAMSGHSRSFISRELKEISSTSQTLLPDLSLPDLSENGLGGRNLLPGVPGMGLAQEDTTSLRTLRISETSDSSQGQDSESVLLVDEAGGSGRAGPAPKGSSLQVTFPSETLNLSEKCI

Structure (SMILES) | IC50 [1] [nM] | IC50 [2] [nM]
COc1cc(F)cc2c1cc(C)n2CCNc1cc(-c2cc(O)cs2)ncn1 [US12011444, Example 801] | 139 | 20
Cc1cc(F)cc2c1cc(C)n2CCNc1cc(-c2cccc(-n3cccn3)c2)ncn1 [US12011444, Example 729] | 783 | 45
COc1ccc(F)c2c1cc(C)n2CCNc1cc(-c2ccc(C(=O)O)c(C(C)(C)C)c2)ncn1 [US12011444, Example 535] | 136 | 68
Cc1ccc(F)c2c1cc(C)n2CCNc1cc(-c2ccc3c(c2)CNC3=O)ncn1 [US12011444, Example 65] | 697 | 41
CCOc1cc(-c2cc(NCCn3c(C)cc4c(OC)ccc(F)c43)ncn2)ccc1C(=O)NOCc1ccccc1 [US12011444, Example 766] | 80 | 57
COc1cc(F)c(F)c2c1cc(C)n2CCNc1cc(-c2ccc3oc(C)nc3c2)ncn1 [US12011444, Example 689] | 558 | 211
CCOc1cc(-c2cc(NCCn3c(C)cc4c(OC)ccc(F)c43)ncn2)ccc1C(=O)NOCCO [US12011444, Example 769] | 259 | 11
COc1ccc(F)c2c1cc(C)n2CCNc1cc(-c2ccc(C(=O)O)c(N)c2)ncn1 [US12011444, Example 214] | 786 | 38
Cc1cc(F)cc2c1cc(C)n2CCNc1cc(-c2ccc(C(=O)O)c(NCC(F)(F)F)c2)ncn1 [US12011444, Example 559] | 247 | 4
CCOc1cc(-c2cc(NCCn3c(C)cc4c(C)ccc(F)c43)ncn2)ccc1C(=O)NOCCO [US12011444, Example 771] | 310 | 19
